Assay results published in PMC3408500, “Development of a High-Throughput Assay for Identifying Inhibitors of TBK1 and IKKε” (PLoS ONE, 2012).
“And” between values parts separate entries of the source, which are not always exact repeats. Equal entries are not always repeated. Structures can show the parent of a compound that is named as a salt. Where two headings read alike, the source gives them in different places.

How the values were obtained:
TBK1 = biological target: T1, TBK1 (Homo sapiens, UniProt Q9UHD2); test: MCE (microfluidic capillary electrophoresis) kinase assay, phosphorylation of 5-FAM-TBK1-Tide by TBK1; assay type: biochemical; details: for inhibition at 10 µM: read-out: percent inhibition of TBK1
T1 construct: purchased Life Technologies (Invitrogen)
T1 sequence (Q9UHD2 1-729): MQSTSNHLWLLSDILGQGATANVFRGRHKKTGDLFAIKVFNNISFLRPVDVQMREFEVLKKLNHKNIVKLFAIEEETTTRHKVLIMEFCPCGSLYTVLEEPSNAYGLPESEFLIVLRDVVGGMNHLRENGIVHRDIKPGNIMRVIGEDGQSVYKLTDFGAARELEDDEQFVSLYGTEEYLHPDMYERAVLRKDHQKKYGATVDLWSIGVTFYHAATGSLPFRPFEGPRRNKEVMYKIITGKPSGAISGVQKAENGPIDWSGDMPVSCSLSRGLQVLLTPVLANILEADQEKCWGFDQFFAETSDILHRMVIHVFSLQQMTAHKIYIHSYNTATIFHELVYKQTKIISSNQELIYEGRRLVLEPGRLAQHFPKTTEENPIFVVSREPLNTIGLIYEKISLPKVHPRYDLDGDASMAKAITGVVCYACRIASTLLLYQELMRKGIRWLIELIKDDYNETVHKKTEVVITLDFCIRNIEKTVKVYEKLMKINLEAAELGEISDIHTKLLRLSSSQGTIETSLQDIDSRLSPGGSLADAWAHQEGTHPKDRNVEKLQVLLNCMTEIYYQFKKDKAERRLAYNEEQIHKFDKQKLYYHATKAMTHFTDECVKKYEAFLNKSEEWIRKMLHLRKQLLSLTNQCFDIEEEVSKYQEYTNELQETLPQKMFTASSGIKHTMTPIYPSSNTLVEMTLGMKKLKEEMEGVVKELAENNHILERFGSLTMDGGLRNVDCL
Description: (§1) MCE operates on the principle that small fluorescently-labeled peptide substrates from ∼100 nanoliter sized aliquots of reaction samples are separable in a capillary channel etched in a quartz microfluidic chip ratio when a current is applied, [30]. […] TBK1-Tide was synthesized with an N-terminal 5– Carboxyfluorescein (5-FAM) dye for use as a substrate. […] The enzyme concentrations were then titrated and fixed to 120 nM for TBK1 and 81 nM for IKKε.
(§2) Compounds were screened at a final concentration of 10 µM in 0.1% DMSO. Two libraries of compounds were tested. […] This library was tested in duplicate to establish the reproducibility of the screen (Figure S2). A second kinase-focused library consisting of 4,727 unique and “rule of five” compliant compounds was also tested (Figures 5A and B). […]

IKKε = biological target: T2, IKKε (Homo sapiens, UniProt Q14164); test: MCE kinase assay, phosphorylation of 5-FAM-TBK1-Tide by IKKε; assay type: biochemical; details: for inhibition at 10 µM: read-out: percent inhibition of IKKε
T2 construct: purchased Life Technologies (Invitrogen)
T2 sequence (Q14164 1-716): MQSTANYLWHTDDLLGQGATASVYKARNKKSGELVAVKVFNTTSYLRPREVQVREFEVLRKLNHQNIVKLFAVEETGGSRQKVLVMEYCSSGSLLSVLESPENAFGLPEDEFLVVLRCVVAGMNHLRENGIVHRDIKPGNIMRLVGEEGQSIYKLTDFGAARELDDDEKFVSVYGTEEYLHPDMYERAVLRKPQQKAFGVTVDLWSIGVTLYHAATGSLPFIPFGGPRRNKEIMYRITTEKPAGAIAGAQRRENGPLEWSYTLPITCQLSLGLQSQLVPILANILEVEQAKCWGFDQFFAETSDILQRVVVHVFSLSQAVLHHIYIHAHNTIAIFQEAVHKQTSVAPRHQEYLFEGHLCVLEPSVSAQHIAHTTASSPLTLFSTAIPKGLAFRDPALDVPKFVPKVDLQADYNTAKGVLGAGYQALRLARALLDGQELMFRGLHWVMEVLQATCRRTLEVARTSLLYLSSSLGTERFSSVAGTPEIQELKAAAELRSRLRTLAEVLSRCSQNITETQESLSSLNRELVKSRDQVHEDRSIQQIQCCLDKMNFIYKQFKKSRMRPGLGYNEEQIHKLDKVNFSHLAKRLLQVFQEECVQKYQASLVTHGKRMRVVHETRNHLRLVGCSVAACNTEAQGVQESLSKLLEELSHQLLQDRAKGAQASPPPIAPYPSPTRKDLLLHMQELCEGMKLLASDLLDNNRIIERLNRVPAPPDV
Description: as §1, §2

IKKα = biological target: T3, IKKα (Homo sapiens, UniProt O15111); test: MCE kinase assay, phosphorylation of FL-1 peptide by IKKα (secondary screen); assay type: biochemical; details: for inhibition at 10 µM: read-out: percent inhibition of IKKα
T3 construct: purchased Life Technologies (Invitrogen)
T3 sequence (O15111 1-745): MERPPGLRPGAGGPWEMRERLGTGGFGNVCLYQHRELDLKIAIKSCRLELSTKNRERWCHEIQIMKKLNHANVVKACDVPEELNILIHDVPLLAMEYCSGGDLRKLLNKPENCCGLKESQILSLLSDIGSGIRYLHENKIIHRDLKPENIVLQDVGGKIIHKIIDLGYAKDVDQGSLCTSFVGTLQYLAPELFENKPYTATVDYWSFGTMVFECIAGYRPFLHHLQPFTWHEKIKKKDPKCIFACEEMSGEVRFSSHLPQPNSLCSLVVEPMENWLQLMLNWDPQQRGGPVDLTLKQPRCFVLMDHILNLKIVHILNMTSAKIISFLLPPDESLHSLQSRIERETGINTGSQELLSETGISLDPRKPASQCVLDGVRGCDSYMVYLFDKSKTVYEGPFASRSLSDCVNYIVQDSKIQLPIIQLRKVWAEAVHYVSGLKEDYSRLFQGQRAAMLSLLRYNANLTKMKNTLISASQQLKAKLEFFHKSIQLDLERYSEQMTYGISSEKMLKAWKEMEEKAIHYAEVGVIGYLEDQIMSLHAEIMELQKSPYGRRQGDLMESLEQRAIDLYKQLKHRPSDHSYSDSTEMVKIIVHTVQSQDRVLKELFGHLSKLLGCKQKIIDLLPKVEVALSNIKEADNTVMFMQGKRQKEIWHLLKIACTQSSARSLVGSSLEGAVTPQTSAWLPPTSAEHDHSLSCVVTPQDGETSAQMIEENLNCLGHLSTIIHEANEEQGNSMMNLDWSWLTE
Description: As IKKβ and IKKα are closely related to TBK1 and IKKε, it was important to determine the specificity of any candidate inhibitors. A secondary screen was therefore performed to evaluate the ability of the top-scoring TBK1 and IKKε inhibitors to inhibit the canonical IKKs. […] Enzyme concentrations were titrated and fixed to 11.5 µM for IKKα and 1.1 µM for IKKβ and the screen was performed as described above for TBK1 and IKKε. […]
Kinase buffer contained 50 mM Tris (pH 7.5), 12 mM MgCl2, 1 mM β-glycerophosphate, 100 µM ATP, and 10 µCi γ-^32P-ATP/reaction. Reactions were incubated at 30°C for 1h. Recombinant GST-TBK1 and GST-TBK1 K38A used in the positional scanning peptide library assay were generated as described above and the assay was performed as described previously, [28]. […]

ERRα = test system: ERRα; parameters: method as in LOPAC library description; details: transient transfection assays using GAL4-ERR LBD or full-length ERR with the mSHP promoter; ref LOPAC library description; cited from earlier work
IKKβ = IKKβ (Homo sapiens, UniProt O14920); details: read-out: ATP Km of IKKβ for TBK1-Tide; room temperature
Description: As IKKβ and IKKα are closely related to TBK1 and IKKε, it was important to determine the specificity of any candidate inhibitors. A secondary screen was therefore performed to evaluate the ability of the top-scoring TBK1 and IKKε inhibitors to inhibit the canonical IKKs. […] Enzyme concentrations were titrated and fixed to 11.5 µM for IKKα and 1.1 µM for IKKβ and the screen was performed as described above for TBK1 and IKKε.
5-FAM-labeled TBK1-Tide for library screening was generated in the High-Throughput Peptide Synthesis and Arrays Core Facility at University of North Carolina at Chapel Hill.
Kinase buffer contained 50 mM Tris (pH 7.5), 12 mM MgCl2, 1 mM β-glycerophosphate, 100 µM ATP, and 10 µCi γ-^32P-ATP/reaction. Reactions were incubated at 30°C for 1h. Recombinant GST-TBK1 and GST-TBK1 K38A used in the positional scanning peptide library assay were generated as described above and the assay was performed as described previously, [28]. […] IKKε reactions were incubated for 2 hours at room temperature and TBK1, IKKα, and IKKβ reactions were incubated for 6 hours at room temperature.

[1] = compound at 10 µM, after 2 hours (at completion of the assay), LOPAC set

Sequence of IKKβ (O14920 whole entry): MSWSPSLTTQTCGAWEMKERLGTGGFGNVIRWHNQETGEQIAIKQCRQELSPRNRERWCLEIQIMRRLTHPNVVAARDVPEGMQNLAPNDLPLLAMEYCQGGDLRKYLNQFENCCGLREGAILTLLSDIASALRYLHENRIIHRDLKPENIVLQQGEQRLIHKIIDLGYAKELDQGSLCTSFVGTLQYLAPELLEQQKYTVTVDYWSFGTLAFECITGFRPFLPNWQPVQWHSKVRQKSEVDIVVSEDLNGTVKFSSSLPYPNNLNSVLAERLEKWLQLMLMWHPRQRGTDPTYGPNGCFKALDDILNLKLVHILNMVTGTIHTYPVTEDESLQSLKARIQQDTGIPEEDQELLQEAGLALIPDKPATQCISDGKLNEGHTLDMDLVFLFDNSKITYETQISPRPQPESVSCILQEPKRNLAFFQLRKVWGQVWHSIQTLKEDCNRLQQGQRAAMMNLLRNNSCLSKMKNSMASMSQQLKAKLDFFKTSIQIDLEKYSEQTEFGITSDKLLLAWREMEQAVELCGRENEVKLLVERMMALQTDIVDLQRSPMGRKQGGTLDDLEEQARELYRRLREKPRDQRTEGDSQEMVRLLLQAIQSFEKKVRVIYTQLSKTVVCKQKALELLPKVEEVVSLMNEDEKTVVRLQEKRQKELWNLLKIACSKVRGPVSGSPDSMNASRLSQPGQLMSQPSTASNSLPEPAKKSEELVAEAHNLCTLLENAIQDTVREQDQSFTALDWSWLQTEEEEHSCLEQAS

Compound | inhibition at 10 µM (TBK1; [1]) | inhibition at 10 µM (IKKε; [1]) | inhibition at 10 µM (IKKα; [1]) | percent inhibition of TBK1 (TBK1; [1]) | percent inhibition of IKKε (IKKε; [1]) | percent inhibition of IKKα (IKKα; [1]) | further results
CC(=O)OCC1=C(C(=O)O)N2C(=O)[C@@H](NC(=O)CSc3ccncc3)[C@H]2SC1 [UNC10100339, Cephapirin sodium salt] | 34% | 60% | -0.5% | – | – | – | –
CC(=O)NCCc1c[nH]c2ccccc12 [UNC10100161, N-Acetyltryptamine] | 74.5% | 24% | -1.5% | – | – | – | –
COc1cc(/C=C(\C#N)C(=O)Nc2nnc(C(F)(F)F)s2)ccc1OCc1ccc(C(F)(F)F)cc1C(F)(F)F [UNC10101318, XCT790] | – | – | – | 71.5% | 10.5% | 28% | IC50 (ERRα): […]
O=c1cc(-c2ccccc2F)[nH]c2cc3c(cc12)OCO3 [UNC10100799, CHM-1 hydrate] | – | – | – | 67.5% | 12.5% | 3% | –
NC(Cc1cc(O)c(O)cc1O)C(=O)O (racemic) [UNC10100691, 6-Hydroxy-DL-DOPA] | – | – | – | 77.5% | 61% | 29% | –
Oc1c2ccccc2c2c3c(cccc13)N=N2 [UNC10100533, SP600125] | 76.5% | 53.5% | 10% | – | – | – | –
O=C1Nc2ccccc2/C1=C1/Nc2ccccc2/C1=N\O [UNC10100206, Indirubin-3′-oxime] | – | – | – | 58% | 68% | 2.5% | –
Nc1c(S(=O)(=O)O)cc(Nc2ccc(Nc3nc(Cl)nc(Nc4cccc(S(=O)(=O)O)c4)n3)c(S(=O)(=O)O)c2)c2c1C(=O)c1ccccc1C2=O [UNC10101110, Reactive Blue 2] | – | – | – | – | – | – | inhibition at 10 µM (TBK1): 74%; inhibition at 10 µM (IKKε): 67%; inhibition at 10 µM (IKKα): 55.5%
CN(C)CCC(c1ccccc1)c1ccccn1.O=C(O)/C=C\C(=O)O (centres unmarked) [UNC10101037, Pheniramine maleate salt] | – | – | – | 80.5% | 20% | -0.5% | –
CN(C)CCC(c1ccc(Cl)cc1)c1ccccn1.O=C(O)/C=C\C(=O)O (racemic) [UNC10100321, (±)-Chlorpheniramine maleate salt] | – | – | – | 84.5% | 48% | -3% | –
COc1ccc2c(c1)/C(=C/c1cnc[nH]1)C(=O)N2 [UNC10100994, SU9516] | 85.5% | 66% | 21.5% | – | – | – | –
Nc1ncnc2c1ncn2[C@@H]1O[C@H](COP(=O)(O)OP(=O)(O)OP(=O)(O)O)[C@@H](O)[C@H]1O [ATP] | – | – | – | – | – | – | Km (TBK1; TBK1-Tide fixed at 1 µM, room temperature, read-out: Km for ATP, TBK1): 7.5 µM and 7.54 µM; Km (IKKε; TBK1-Tide fixed at 1 µM, room temperature, read-out: Km for ATP, IKKε): 4.7 µM and 4.67 µM; Km (IKKα; room temperature, read-out: ATP Km of IKKα for FL-1): 134 µM; Km (IKKβ): 2 µM
Brc1ccc([C@H]2CN3CCSC3=N2)cc1.O=C(O)C(=O)O [UNC10100081, (−)-p-Bromolevamisole oxalate] | – | – | – | 70% | 26.5% | -2% | –
